Measurements taken from patent US12648941B2, “Piperidine urea derivatives for use as inotropic agents” (Helsinn Healthcare SA, priority 2021, dated 2026).
Entries after “also recorded” stand apart in the source; their conditions may differ. Where two headings read alike, the source gives them in different places.

What was measured:
[1] = system: cortisol; test: Phase 1 SAD pharmacodynamics, serum cortisol (ELISA); format: in vivo, human
Description: (§1) Blood samples for determination of growth hormone (GH), insulin-like growth factor-1 (IGF-1), adrenocorticotropic hormone (ACTH), prolactin, cortisol and aldosterone in serum at pre-dose and 0.5, 1, 2, 3, 4, 6 and 24 hours post-dose were collected by venous puncture. All biomarkers were determined using enzyme linked immunosorbent assays (ELISA). Simplified nutritional appetite questionnaire based on appetite assessments at Day −1 after dinner, and on Day 1 pre-dose, 1, 2, 4, 8, and 24 hours after dosing. Stool diary starting on Day 1 until discharge on Day 4.

[2] = system: Protein kinase A (PKA); test: PKA activity assay in cardiomyocytes (ELISA-based kit); format: cell-based, mouse; settings: isolated cardiomyocytes; 1 μM
Description: AC01/HM01 was suspended in phosphate buffer saline solution (PBS: in mM: NaCl 137, KCl 7, Na2HPO4 10, KH2PO4 […]) and diluted to obtain 3 different concentrations: 0.2, 0.5 or 1 μM in Tyrode solution. We used a concentration range within 0.2-1 μM to ensure that the receptor was activated. […] Prior to contractility and Ca^2+ signaling measurements and biochemical assays, cardiomyocyte suspensions from SHAM and HF hearts were randomized to 3 types of treatments: vehicle, AC01/HM01, or D-Lys3-GHPR-6+AC01/HM01. The treatment with different agents occurred for 15 minutes at room temperature. Some cell suspension aliquots were flash frozen in liquid N2 and stored at −80° C. for later biochemistry analyses. All the experiments were conducted blinded regarding the treatment of cardiomyocytes.
Elisa-based PKA kinase activity assay kit (ab139435, Abcam, Cambridge, UK) was employed to determine PKA activity in cardiomyocytes. Aliquots of frozen cardiomyocytes were thawed and mixed with a lysis buffer containing (mM) the following: 20 MOPS, 50 β-glycerolphosphate, 5 EGTA, 2 EDTA, 1 benzamidine, 1 sodium orthovanadate, 1% NP40, 1 DTT, complete protease inhibitor cocktail (Roche Diagnostics, West Sussex, UK) and phosphatase inhibitor cocktail 3 (Sigma, Gillingham, UK). Approximately 2 μg of protein of each sample were assayed according to the manufacturer's instructions 27.

[3] = system: adrenocorticotropic hormone (ACTH); test: Phase 1 SAD pharmacodynamics, serum ACTH (ELISA); format: in vivo, human; settings: higher doses; ACTH determined only after 1.0 mg
Description: as §1

[4] = Phase 1 SAD, stool diary; format: in vivo, human; settings: between dose groups
Description: as §1

[5] = Phase 1 single ascending dose study, plasma pharmacokinetics; format: in vivo, human; settings: for AUClast/D / Cmax/D / AUC∞/D / CL/F / λz / AUC(0-t) / Cmax / AUC(0-inf) / MRT / Vd/F: geometric mean; for AUC(0-t): po; for Vd/F: read-out: Vz/F
Description: Single-center, randomized, double-blind, placebo-controlled, single ascending dose (SAD) study.
Screening examinations were performed within 28 days prior to dosing. Eligible subjects returned to the study center in the morning of Day-1 and remained in-patient until discharge at 72 hours after dosing (morning of Day 4) if there were no safety issues. The oral dose was administered in the morning of Day 1. Subjects returned to the clinic 7 days after treatment, in the morning of Day 8 (±1 day), for the safety assessments.
Healthy male non-smoking subjects, between 18 and 50 years of age inclusive, with a body mass index (BMI) between 18.5 and 29.9 kg/m^2 inclusive. Cohorts of 8 subjects per dose step were planned. Cohort 1 (10 mg or placebo) was stopped after dosing of 4 subjects. Cohorts 2 to 4 consisted of 8 subjects each, i.e., a total number of 28 subjects were randomized and completed the study. There were no withdrawals.
HM01 HCl powder in gelatine capsules. Capsules with the strength of 0.1 mg and 1.0 mg and 10 mg for cohort 1 were available. • Cohort 1:10 mg HM01 • Cohort 2:0.1 mg HM01 Cohort 3:0.3 mg HM01 Cohort 4:1.0 mg HM01
Subjects were dosed in a fasted state (no food for at least 8 hours). Access to food was restricted until 4 hours after dosing. Capsules were administered orally together with 240 mL water.
Blood samples for analytical assay of HM01 and the 3 major metabolites (M2, M6 and M9) were collected at pre-dose (within 60 minutes prior to drug administration), and at 0.25, 0.5, 1, 1.5, 2, 3, 4, 6, 8, 12, 16, 24, 30, 36, 48, 60 and 72 hours post dose (18 samples). Urine was collected for 24 hours after dosing. Blood and urine samples were analyzed for HM01 and its metabolites concentrations using validated LC-MS/MS methods.
PK parameters estimated included Cmax (maximum observed concentration), Cmax/D (Cmax per dose unit), tmax (peak time), Clast (last measurable concentration above the lower limit of quantification), tlast (time of Clast), AUC(0-24) and AUClast (area under the plasma concentration-time curve from time zero to 24 hours and to the last measurable concentration, tlast, respectively), AUClast/D (AUClast per dose unit), AUC∞(area under the plasma concentration-time curve from time zero to infinity), AUC∞(/D (AUC∞ per dose unit), t1/2 (apparent terminal half-life), CL/F (systemic clearance after extravascular administration, only for the parent drug), Vz/F (apparent volume of distribution after extravascular administration, only for the parent drug), MRT (mean residence time).

[6] = 0.1 mg HM01 single oral dose, N = 6
[7] = 0.3 mg HM01 single oral dose, N = 6
[8] = 0.3 mg HM01 single oral dose, n = 5
[9] = 1.0 mg HM01 single oral dose, N = 6
[10] = 10 mg HM01 single oral dose, N = 3
[11] = male, human, plasma, 0.3 mg HM01 single oral dose, n = 5
[12] = male, human, plasma, 1.0 mg HM01 single oral dose, N = 6
[13] = male, human, plasma, 10 mg HM01 single oral dose, N = 3

COc1ccc([C@H](C)NC(=O)N(C)[C@@H]2CCN(C)CC2(C)C)c(Cl)c1Cl.Cl [AC01/HM01, 1-[(1S)-1-(2,3-dichloro-4-methoxyphenyl)ethyl]-3-methyl-3-[(4R)-1-methyl-3,3-dimethyl-4-piperidyl]-urea]
concentrations of cortisol ([1]; 1.0 and 10 mg HM01): rapidly increased above baseline values
cortisol increase, comparison of doses ([1]; 1.0 vs 10 mg): similar
PKA activity vs vehicle [2]: decreased; also recorded: reduction of PKA activity
concentrations of ACTH [3]: rapidly increased above baseline values
number of bowel movements per day and number of subjects with bowel movement [4]: no dose-related differences
AUClast/D [5, 6]: 4.899 (h * ng/mL)/mg
Cmax/D [5, 6]: 1.357 (ng/mL)/mg
tlast ([5]; 0.1 mg HM01 single oral dose, N = 6, median): 8.00 h
AUClast/D [5, 7]: 9.396 (h * ng/mL)/mg
Cmax/D [5, 7]: 0.9554 (ng/mL)/mg
tlast ([5]; 0.3 mg HM01 single oral dose, N = 6, median): 16.00 h
AUC∞/D [5, 8]: 15.19 (h * ng/mL)/mg
CL/F [5, 8]: 65.8 L/h
λz [5, 8]: 0.0821 h⁻¹
AUClast/D [5, 9]: 14.71 (h * ng/mL)/mg
AUC∞/D [5, 9]: 16.94 (h * ng/mL)/mg
CL/F [5, 9]: 59.0 L/h
Cmax/D [5, 9]: 1.280 (ng/mL)/mg
λz [5, 9]: 0.0648 h⁻¹
tlast ([5]; 1.0 mg HM01 single oral dose, N = 6, median): 36.00 h
AUClast/D [5, 10]: 17.61 (h * ng/mL)/mg
AUC∞/D [5, 10]: 17.88 (h * ng/mL)/mg
CL/F [5, 10]: 55.9 L/h
Cmax/D [5, 10]: 1.528 (ng/mL)/mg
λz [5, 10]: 0.0646 h⁻¹
tlast ([5]; 10 mg HM01 single oral dose, N = 3, median): 72.00 h
half-life ([5]; male, human, plasma, oral, similar for all doses, read-out: arithmetic mean half-life of HM01): 9 to 11 h
clearance ([5]; male, human, plasma, oral, similar for all doses, read-out: geometric mean clearance of HM01): 932 to 1100 mL/min
Tmax ([5]; male, human, plasma, oral, similar for all doses, read-out: median tmax of HM01): 3 to 4 h
apparent volume of distribution (Vz/F) ([5]; male, human, plasma, oral, similar for all doses, read-out: volume of distribution of HM01): 801 to 911 L
AUC(0-t) ([5]; male, human, plasma, 0.1 mg, 0.1 mg HM01 single oral dose, fasted healthy males, N = 6, read-out: AUClast): 0.49 ng·h/mL
AUC(0-t) ([5]; male, human, plasma, 0.3 mg, 0.3 mg HM01 single oral dose, N = 6, read-out: AUClast): 2.82 ng·h/mL
AUC(0-t) ([5]; male, human, plasma, 0.3 mg, 0.3 mg HM01 single oral dose, fasted healthy males, N = 6, read-out: AUC0-24h): 3.75 ng·h/mL
AUC(0-t) ([5]; male, human, plasma, 1 mg, 1.0 mg HM01 single oral dose, N = 6, read-out: AUClast): 14.7 ng·h/mL
AUC(0-t) ([5]; male, human, plasma, 1 mg, 1.0 mg HM01 single oral dose, fasted healthy males, N = 6, read-out: AUC0-24h): 13.4 ng·h/mL
AUC(0-t) ([5]; male, human, plasma, 10 mg, 10 mg HM01 single oral dose, N = 3, read-out: AUClast): 176 ng·h/mL
AUC(0-t) ([5]; male, human, plasma, 10 mg, 10 mg HM01 single oral dose, fasted healthy males, N = 3, read-out: AUC0-24h): 149 ng·h/mL
Cmax ([5]; male, human, plasma, 0.1 mg HM01 single oral dose, N = 6): 0.136 ng/mL
Tmax ([5]; male, human, plasma, 0.1 mg HM01 single oral dose, N = 6, median, read-out: tmax): 3 h
Cmax ([5]; male, human, plasma, 0.3 mg HM01 single oral dose, N = 6): 0.287 ng/mL
Tmax ([5]; male, human, plasma, 0.3 mg HM01 single oral dose, N = 6, median, read-out: tmax): 4 h
half-life ([5]; male, human, plasma, 0.3 mg HM01 single oral dose, n = 5, arithmetic mean, read-out: t1/2 (converted)): 8.83 h
AUC(0-inf) [5, 11]: 4.56 ng·h/mL
MRT [5, 11]: 14.4 h
Vd/F [5, 11]: 801 L
half-life ([5]; male, human, plasma, 1.0 mg HM01 single oral dose, N = 6, arithmetic mean, read-out: t1/2 (converted)): 11 h
AUC(0-inf) [5, 12]: 16.9 ng·h/mL
Cmax [5, 12]: 1.28 ng/mL
MRT [5, 12]: 15.3 h
Vd/F [5, 12]: 911 L
Tmax ([5]; male, human, plasma, 1.0 mg HM01 single oral dose, N = 6, median, read-out: tmax): 4 h
half-life ([5]; male, human, plasma, 10 mg HM01 single oral dose, N = 3, arithmetic mean, read-out: t1/2 (converted)): 10.9 h
AUC(0-inf) [5, 13]: 179 ng·h/mL
Cmax [5, 13]: 15.3 ng/mL
MRT [5, 13]: 14.2 h
Vd/F [5, 13]: 866 L
Tmax ([5]; male, human, plasma, 10 mg HM01 single oral dose, N = 3, median, read-out: tmax): 3 h
dose dependence of AUC∞ ([5]; single oral doses of HM01): dose proportional increase
dose dependence of max ([5]; single oral doses of HM01): dose proportional increase
